This assay has as its system adipose-derived stem cells recovered from fat tissue. Description: Yield of adipose-derived stem cells (ASCs) after seven days of growth, compared to the collagenase-based method. To be noted: mince 2.5 mins, incubate with agent at 37° C. for 1 hour; ASCs after seven days of growth vs collagenase-based method. The format is cell-based.

A value given as a limit tells only on which side of the number the result lay.

Experimental: Fat tissue (adipose tissue) obtained as lipoaspirate or resected via surgeries are to be obtained prior conducting any of the methods as described herein. To ensure optimum cell viability, immediate isolation of stromal vascular fraction on the day the sample is obtained is recommended. However, the methods as described herein may be performed optimally within 24 hours of sample being obtained. If the methods of the present disclosure cannot be performed immediately upon harvest of sample or within 72 hours of the sample being obtained, the sample was stored at 4° C. In case of enzymatic digestion, the sample is brought to room temperature before proceeding to the isolation procedure.
Upon obtaining the sample as lipoaspirate, to remove debris, the fat tissue was washed with equal amount of buffer (such as phosphate buffered saline (PBS) or Hank's balanced salt solution (HBSS)). For example, for 50 cc or 50 gram volume of lipoaspirate, 50 ml of buffer was used. Washed sample was allowed to settle for a couple of minutes and fluid from the bottom was aspirated to leave fat layer in the top. Washing steps were repeated two times. Collected fat layer was divided into the different methods as described below.
i) Add an equal volume of collagenase solution (ml per gram or cc of fat pads) into one sterile vial and warm to 37° C. Typically, collagenase solution is composed of 2.5 μg/ml collagenase type I, 1% (wt/vol) Bovine Serum Albumin (BSA), 50 μg/ml D-glucose and 200 nM adenosine in buffer;
i) Place washed fat tissue into appropriate tubes. Add equal volume of HBSS solution. Usually 10 ml of fat is used for each variable for replicate treatment/plating. Resected fat is favorable for consistency of cell yield, but manually harvested lipoaspirates are acceptable though additional optimization work described below is recommended;
When homogenizer is to be used, mildly homogenize fat tissue samples at the lowest level setting for 1 min. As would be apparent to the skilled person in the art, different homogenizers would give very different results. […] Optimization for different type of fat tissues must be conducted to obtain optimized parameters and lengths of homogenizing time;
vi) Centrifuge samples at 450 g (about 1800 RPM) for 5 min to pellet dissociated stromal vascular fraction cells. […] Discard the top layer of floating mature adipocytes;
xii) Re-suspend pellet in buffer (PBS or HBSS; 1 ml per 100 cc original tissue). Sample out 10 μl and count cell number in 1:1 mixture of trypan blue by hemocytometer or automated cell counter.
xv) Plate into appropriate dishes and incubate culture plates in 37° C., 5% CO2 incubator. […]
The isolated stromal vascular fraction cells in the methods described above were analyzed for their qualities and yield of adipose-derived stem cells. […]

As for `CC(C)NCC(O)c1ccc(O)c(O)c1` (stereo not shown) [Isoprenaline, isoprenaline], the “Yield (percentage yield of adipose-derived stem cells recovered)” value is recorded as >70%.

Turning to Triton-X, the “Yield (percentage yield of adipose-derived stem cells recovered)” value is 0%.

In the case of “Sodium deoxycholate [Sodium deoxycholate (SOC)]”, the “Yield (percentage yield of adipose-derived stem cells recovered)” value was 0%.

On to `CNC[C@H](O)c1ccc(O)c(O)c1` [Epinephrine, epinephrine], for which the “Yield (percentage yield of adipose-derived stem cells recovered)” value was >85%.

The values above are taken from patent US20160143955A1, “METHOD FOR ISOLATING STROMAL VASCULAR FRACTION” (AGENCY FOR SCIENCE, TECHNOLOGY AND RESEARCH, priority 2013, published 2016).
